Patent publication US20240417410A1, “TRICYCLIC COMPOUNDS FOR THE TREATMENT OF CANCER” (Hoffmann-La Roche Inc., priority 2023, published 2024)

How the values were obtained:
SW620 cells (KRAS G12V) = test: Cell viability assay (Cell Counting Kit-8, 3-day); format: cell-based, human; conditions: Homo sapiens, SW-620; SW620, 72 hrs incubation
Experimental: (§1) The purpose of this cellular assay was to determine the effects of test compounds on the proliferation of human cancer cell lines NCI-H358 (ATCC-CRL5807) cells, AGS (ATCC-CRL-1739) cells, SW620 (ATCC-CCL-227) over a 3-day treatment period by quantifying the amount of NADPH present at endpoint using Cell Counting Kit-8.
(§2) Cells were seeded at 5,000 cells/well (NCI-H358), 2,000 cells/well (AGS) 2,000 cells/well (SW620) in 96-well assay plates (Corning-3699) and incubated overnight. On the day of the assay, diluted compounds were then added in a final concentration of 0.5% DMSO. After 72 hrs incubation, a tenth of the volume of cell counting kit 8 (Dnjindo-CK04) was added into each well. Read the signal (OD450 minus OD650) using EnVision after 2 hrs incubation. IC50 was determined by fitting a 4-parameter sigmoidal concentration response model.

AGS cells (KRAS G12D) = test: Cell viability assay (Cell Counting Kit-8, 3-day); format: cell-based, human; conditions: Homo sapiens, 72 h, 72 hrs incubation
Experimental: as §1, §2

[1] = test system: NCI-H358 cells (KRAS G12C); test: Cell viability assay (Cell Counting Kit-8, 3-day); format: cell-based, human; conditions: Homo sapiens, NCI-H358, 72 h, NCI-H358, 72 hrs incubation
Experimental: as §1, §2

[2] = test system: phosphorylation of ERK, KRAS G12D in AGS cells; test: pERK inhibition assay; format: cell-based; conditions: Homo sapiens, AGS, 4 h
Experimental: (§3) This assay is to measure the ability of test compounds in inhibiting the phosphorylation of ERK, the downstream signaling of KRAS G12C in NCI-H358 cells, KRAS G12D in AGS cells, and KRAS G12V in SW620. NCI-H358 (ATCC-CRL5807) cells, AGS (ATCC-CRL-1739) cells, SW620 (ATCC-CCL-227) cells were all grown and maintained using RPMI-1640 medium (Thermo Fisher Scientific) with 10% fetal bovine serum and 1% penicillin/streptomycin. On the day prior to compound addition, cells were plated in tissue culture-treated 96 well plates (Corning-3699) at a density of 30,000 cell/well, 20,000 cell/well, 30,000 cell/well for NCI-H358, AGS and SW620 respectively, and allowed for attachment overnight. Diluted compounds were then added in a final concentration of 0.5% DMSO. After 4 hours of incubation, the medium was removed, 100 μL of 4% formaldehyde was added, and the assay plates were incubated at room temperature for 20 minutes. The plates were then washed once with phosphate buffered saline (PBS), and permeabilized with 100 μL of chilled methanol for 10 minutes. Non-specific antibody binding to the plates was blocked using 50 μL 1X BSA blocking buffer (Thermo-37520, 10-fold dilution by Phosphate-Buffered Saline Tween (PBST) for at least 1 hour at room temperature.
(§4) The amount of phosphor-ERK was determined using an antibody specific for phosphorylated form of ERK. Primary antibody (PERK, CST-4370, Cell Signaling Technology) was diluted 1:300 in blocking buffer, with 50 μL aliquoted to each well, and incubated overnight at 4° C. Cells was washed five times for 5 minutes with PBST. Secondary antibody (HRP-linked anti-rabbit IgG, CST-7074, Cell Signaling Technology) was diluted 1:1000 in blocking buffer, and 50 μL was added to each well and incubated 1-2 hrs at room temperature. Cells was washed […] for 5 minutes with PBST, 100 μL TMB ELISA substrate (abcam-ab171523) were added and gently shake for 20 minutes. 50 μL stop solution (abcam-ab 171529) were added, and then read the signal (OD450) by EnVision.
(§5) IC50 was determined by fitting a 4-parameter sigmoidal concentration response model.

[3] = test system: phosphorylation of ERK, KRAS G12V in SW620; test: pERK inhibition assay; format: cell-based; conditions: Homo sapiens, SW-620, 4 h, SW620 cells
Experimental: as §3, §4, §5

[4] = test system: phosphorylation of ERK, KRAS G12C in NCI-H358 cells; test: pERK inhibition assay; format: cell-based; conditions: Homo sapiens, NCI-H358, 4 h
Experimental: as §3, §4, §5

| SMILES | IC50 (SW620 cells (KRAS G12V)) [nM] | IC50 (AGS cells (KRAS G12D)) [nM] | IC50 [1] [nM] | IC50 [2] [nM] | IC50 [3] [nM] | IC50 [4] [nM] |
| --- | --- | --- | --- | --- | --- | --- |
| CO[C@@H](C)c1ncc(N2CCOCC2)cc1-c1c2c3cc(cc4c3n1CC(F)(F)C4)-c1csc(n1)C[C@H](NC(=O)[C@H]1C[C@@H]1c1ccccc1)C(=O)N1CCC[C@H](N1)C(=O)OCC(C)(C)C2 (atropisomer, axis not shown; (M)) [Example 79, (1S,2S)-N-[(7S,13S)-23,23-difluoro-(20M)-20-[2-[(1S)-1-methoxyethyl]-5-morpholino-3-pyridyl]-17,17-dimethyl-8,14-dioxo-15-oxa-4-thia-9,21,30,31-tetrazahexacyclo[23.3.1.1^2,5.1^9,13.0^19,27.0^21,26]hentriaconta-1 (28),2,5 (31),19,25 (29),26-hexaen-7-yl]-2-phenyl-cyclopropanecarboxamide] | 3.2 | 57 | 13.2 | 16.2 | 1.4 | 1.6 |
| CO[C@@H](C)c1ncc(N2CCN(C)CC2)cc1-c1c2c3cc(cc4c3n1CCC4)-c1csc(n1)C[C@H](NC(=O)[C@H]1C[C@@H]1c1ccccc1F)C(=O)N1CCC[C@H](N1)C(=O)OCC(C)(C)C2 [Example 29, (1S,2S)-2-(2-fluorophenyl)-N-[(7S,13S)-(20M)-20-[2-[(1S)-1-methoxyethyl]-5-(4-methylpiperazin-1-yl)-3-pyridyl]-17,17-dimethyl-8,14-dioxo-15-oxa-4-thia-9,21,30,31-tetrazahexacyclo[23.3.1.1^2,5.1^9,13.0^19,27.0^21,26]hentriaconta-1 (28),2,5 (31),19,25 (29),26-hexaen-7-yl]cyclopropanecarboxamide] | 0.8 | 11.4 | 2.5 | 1.6 | < 0.6 | < 0.6 |
| CO[C@@H](C)c1ncc(N2CCN(C)CC2)cc1-c1c2c3cc(cc4c3n1CCC4)-c1csc(n1)C[C@H](NC(=O)[C@H]1C[C@@H]1c1ccncc1)C(=O)N1CCC[C@H](N1)C(=O)OCC(C)(C)C2 [Example 57, (1S,2S)-N-[(7S,13S)-(20M)-20-[2-[(1S)-1-methoxyethyl]-5-(4-methylpiperazin-1-yl)-3-pyridyl]-17,17-dimethyl-8,14-dioxo-15-oxa-4-thia-9,21,30,31-tetrazahexacyclo[23.3.1.1^2,5.1^9,13.0^19,27.0^21,26]hentriaconta-1 (28),2,5 (31), 19,25 (29),26-hexaen-7-yl]-2-(4-pyridyl)cyclopropanecarboxamide] | 1.5 | 27.6 | 5.4 | 6.1 | 1.3 | 1.1 |
| CO[C@@H](C)c1ncc(N2CCOCC2)cc1-c1c2c3cc(cc4c3n1C(C)(C)CC4)-c1csc(n1)C[C@H](NC(=O)[C@H]1C[C@@H]1C)C(=O)N1CCC[C@H](N1)C(=O)OCC(C)(C)C2 [Example 125, (1S,2S)-N-[(7S,13S)-(20M)-20-[2-[(1S)-1-methoxyethyl]-5-morpholino-3-pyridyl]-17,17,22,22-tetramethyl-8,14-dioxo-15-oxa-4-thia-9,21,30,31-tetrazahexacyclo[23.3.1.1^2,5.1^9,13.0^19,27.0^21,26]hentriaconta-1 (29),2,5 (31),19,25,27-hexaen-7-yl]-2-methyl-cyclopropanecarboxamide] | 208 | 4720 | 1100 | 481 | 84 | 303 |
| CO[C@@H](C)c1ncc(N2CCOCC2)cc1-c1c2c3cc(cc4c3n1CCCC4)-c1csc(n1)C[C@H](NC(=O)[C@H]1[C@H](C)[C@@H]1C)C(=O)N1CCC[C@H](N1)C(=O)OCC(C)(C)C2 [Example 126, (1r,2R,3S)-N-[(7S,13S)-(20M)-20-[2-[(1S)-1-methoxyethyl]-5-morpholino-3-pyridyl]-17,17-dimethyl-8,14-dioxo-15-oxa-4-thia-9,21,31,32-tetrazahexacyclo[24.3.1.1^2,5.1^9,13.0^19,28.0^19,28.0^21,27]dotriaconta-1 (29),2,5 (32),19,26 (30),27-hexaen-7-yl]-2,3-dimethyl-cyclopropanecarboxamide] | 7 | 757 | 40 | 50 | 3 | 5 |
| CO[C@@H](C)c1ncc(N2CCN(C)CC2)cc1-c1c2c3cc(cc4c3n1CCCCC4)-c1csc(n1)C[C@H](NC(=O)[C@H]1[C@H](C)[C@@H]1C)C(=O)N1CCC[C@H](N1)C(=O)OCC(C)(C)C2 [Example 127, (1r,2R,3S)-N-[(7S,13S)-(20M)-20-[2-[(1S)-1-methoxyethyl]-5-(4-methylpiperazin-1-yl)-3-pyridyl]-17,17-dimethyl-8,14-dioxo-15-oxa-4-thia-9,21,32,33-tetrazahexacyclo[25.3.1.1^2,5.1^9,13.0^19,29.0^21,28]tritriaconta-1 (30),2,5 (33),19,27 (31),28-hexaen-7-yl]-2,3-dimethyl-cyclopropanecarboxamide] | 27 | 1000 | 1000 | 697 | 30 | 30 |

More lines, in order of falling IC50 (SW620 cells (KRAS G12V)), values ahead:

| IC50 (SW620 cells (KRAS G12V)) [nM] | IC50 (AGS cells (KRAS G12D)) [nM] | IC50 [1] [nM] | IC50 [2] [nM] | IC50 [3] [nM] | IC50 [4] [nM] | SMILES |
| --- | --- | --- | --- | --- | --- | --- |
| 3.8 | 98.7 | 17.1 | 20.7 | 2.7 | 1.9 | CO[C@@H](C)c1ncc(N2CCN(C)CC2)cc1-c1c2c3cc(cc4c3n1CCC4)-c1csc(n1)C[C@H](NC(=O)C1(C)CC1(F)F)C(=O)N1CCC[C@H](N1)C(=O)OCC(C)(C)C2 (stereo partly drawn) [Example 19, 2,2-difluoro-N-[(7S,13S)-(20M)-20-[2-[(1S)-1-methoxyethyl]-5-(4-methylpiperazin-1-yl)-3-pyridyl]-17,17-dimethyl-8,14-dioxo-15-oxa-4-thia-9,21,30,31-tetrazahexacyclo[23.3.1.1^2,5.1^9,13.0^19,27.0^21,26]hentriaconta-1 (28),2,5 (31),19,25 (29),26-hexaen-7-yl]-1-methyl-cyclopropanecarboxamide] |
| 2 | 38.5 | 7.6 | 20.5 | 4.9 | 6.4 | CO[C@@H](C)c1ncc(N2CCN(C)CC2)cc1-c1c2c3cc(cc4c3n1CCC4)-c1csc(n1)C[C@H](NC(=O)[C@@H]1C[C@H]1c1ccncc1)C(=O)N1CCC[C@H](N1)C(=O)OCC(C)(C)C2 [Example 58, (1R,2R)-N-[(7S,13S)-(20M)-20-[2-[(1S)-1-methoxyethyl]-5-(4-methylpiperazin-1-yl)-3-pyridyl]-17,17-dimethyl-8,14-dioxo-15-oxa-4-thia-9,21,30,31-tetrazahexacyclo[23.3.1.1^2,5.1^9,13.0^19,27.0^21,26]hentriaconta-1 (28),2,5 (31),19,25 (29),26-hexaen-7-yl]-2-(4-pyridyl)cyclopropanecarboxamide] |
| 1.5 | 22.3 | 7 | 9.4 | 1.3 | 1.2 | CO[C@@H](C)c1ncc(N2CCN(C)CC2)cc1-c1c2c3cc(cc4c3n1CCC4)-c1csc(n1)C[C@H](NC(=O)[C@@H]1C[C@H]1c1ccccc1F)C(=O)N1CCC[C@H](N1)C(=O)OCC(C)(C)C2 [Example 28, (1R,2R)-2-(2-fluorophenyl)-N-[(7S,13S)-(20M)-20-[2-[(1S)-1-methoxyethyl]-5-(4-methylpiperazin-1-yl)-3-pyridyl]-17,17-dimethyl-8,14-dioxo-15-oxa-4-thia-9,21,30,31-tetrazahexacyclo[23.3.1.1^2,5.1^9,13.0^19,27.0^21,26]hentriaconta-1 (28),2,5 (31),19,25 (29),26-hexaen-7-yl]cyclopropanecarboxamide] |
